In one assay the target is KRAS G12C (Homo sapiens, UniProt P01116, G12C). The assay can be described thus: GDP-GTP exchange assay (bodipy-GDP/GppNHp, SOS1). The class given is biochemical. Particulars: bodipy-loaded KRAS G12C 2.5 nM, SOS1 150 nM, 2 hours pre-incubation with inhibitor; read-out: G12C_exchange IC50. As for the experimental part:
The inhibitor potency of the exemplified compounds was determined in a fluorescence based guanine nucleotide exchange assay, which measures the exchange of bodipy-GDP (fluorescently labeled GDP) for GppNHp (Non-hydrolyzable GTP analog) to generate the active state of KRAS in the presence of SOS1 (guanine nucleotide exchange factor). Inhibitors were serially diluted in DMSO and a volume of 0.1 μL was transferred to the wells of a black low volume 384-well plate. 5 μL/well volume of bodipy-loaded KRAS G12C diluted to 5 nM in assay buffer (25 mM Hepes pH 7.5, 50 mM NaCl, 10 mM MgCl2 and 0.01% Brij-35) was added to the plate and pre-incubated with inhibitor for 2 hours at ambient temperature. Appropriate controls (enzyme with no inhibitor or with a G12C inhibitor (AMG-510)) were included on the plate. The exchange was initiated by the addition of a 5 μL/well volume containing 1 mM GppNHp and 300 nM SOS1 in assay buffer. The 10 μL/well reaction concentration of the bodipy-loaded KRAS G12C, GppNHp, and SOS1 were 2.5 nM, 500 uM, and 150 nM, respectively. The reaction plates were incubated at ambient temperature for 2 hours, a time estimated for complete GDP-GTP exchange in the absence of inhibitor. For the KRAS G12D and G12V mutants, similar guanine nucleotide exchange assays were used with 2.5 nM as final concentration for the bodipy loaded KRAS proteins and with 4 hours and 3 hours incubation after adding GppNHp-SOS1 mixture for G12D and G12V respectively. A cyclic peptide described to selectively bind G12D mutant (Sakamoto et al., BBRC 484.3 (2017), 605-611) or internal compounds with confirmed binding were used as positive controls in the assay plates. Fluorescence intensities were measured on a PheraStar plate reader instrument (BMG Labtech) with excitation at 485 nm and emission at 520 nm.
Either GraphPad prism or XLfit was used to analyze the data. The IC50 values were derived by fitting the data to a four parameter logistic equation producing a sigmoidal dose-response curve with a variable Hill coefficient. Prism equation: Y=Bottom+(Top−Bottom)/(1+10^((Log IC50−X)*Hill slope)); XLfit equation: Y=(A+((B−A)/(1+((X/C)^D)))) where X is the logarithm of inhibitor concentration and Y is the response.

The subject of assay [1] is MIA PaCa-2 (KRAS G12C) cells. The assay is described as follows: Cellular pERK HTRF assay (KRAS_G12C pERK assay). To be noted: Homo sapiens, cells incubated with compound 4 hours, read-out: G12C_pERK IC50. It counts as cell-based. As for the experimental part: MIA PaCa-2 (KRAS G12C; ATCC® CRL-1420), A427 (KRAS G12D; ATCC® HTB53), HPAF-II (KRAS G12D; ATCC® CRL-1997) and NCI-H838 (KRAS WT; ATCC® CRL-5844) cells are purchased from ATCC and maintained in RPMI 1640 media supplemented with 10% FBS (Gibco/Life Technologies). The cells are plated at 5000 cells per well (8 uL) into Greiner 384-well low volume, flat-bottom, tissue culture treated white plates and incubated overnight at 37° C., 5% CO2. The next morning, test compound stock solutions are diluted in media at 3× the final concentration, and 4 uL are added to the cells. The plate is mixed by gentle rotation for 30 seconds (250 rpm) at room temperature. The cells are incubated with the KRAS G12C and G12D compounds for 4 hours or 2 hours respectively at 37° C., 5% CO2.
4 uL of 4× lysis buffer with blocking reagent (1:25) (Cisbio) are added to each well and plates are rotated gently (300 rpm) for 30 minutes at room temperature. 4 uL per well of Cisbio anti Phospho-ERK 1/2 d2 is mixed with anti Phospho-ERK 1/2 Cryptate (1:1) are added to each well, mixed by rotation and incubated overnight in the dark at room temperature. Plates are read on the Pherastar plate reader at 665 nm and 620 nm wavelengths. IC50 determination is performed by fitting the curve of inhibitor percent inhibition versus the log of the inhibitor concentration using the GraphPad Prism 7 software.
Background: TR-FRET usually uses a lanthanide donor and a delayed reading to cut background.

Chain of KRAS G12C (P01116 1-188 isoform P01116-2 G12C): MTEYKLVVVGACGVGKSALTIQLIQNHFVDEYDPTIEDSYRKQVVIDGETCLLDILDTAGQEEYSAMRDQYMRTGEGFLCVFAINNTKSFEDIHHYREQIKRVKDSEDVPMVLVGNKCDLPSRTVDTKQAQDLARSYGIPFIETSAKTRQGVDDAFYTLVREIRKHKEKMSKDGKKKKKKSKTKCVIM

As a reminder, the IC50 is the concentration that inhibits the measured activity by half. For `C=Cc1ncc2n1CCN(c1nc(OCCCN3CCOCC3)nc3c1CCN(c1cccc4cccc(Cl)c14)C3)C2` [Example 1, 4-(3-((7-(8-Chloronaphthalen-1-yl)-4-(3-vinyl-5,6-dihydroimidazo[1,5-a]pyrazin-7(8H)-yl)-5,6,7,8-tetrahydropyrido[3,4-d]pyrimidin-2-yl)oxy)propyl)morpholine], the half-inhibitory concentration (IC50) on KRAS G12C fell in the range of 100 to 1000 nM; in assay [1], 1000 to 5000 nM.

For `C=Cc1ncc2n1CCN(c1nc(OCCCN3CCOCC3)nc3c1CCN(c1cccc4ccccc14)C3)C2` [Example 2, 4-(3-((7-(Naphthalen-1-yl)-4-(3-vinyl-5,6-dihydroimidazo[1,5-a]pyrazin-7(8H)-yl)-5,6,7,8-tetrahydropyrido[3,4-d]pyrimidin-2-yl)oxy)propyl)morpholine], the half-maximal inhibitory concentration (IC50) on KRAS G12C was no more than 100 nM; in assay [1], 1000 to 5000 nM.

As to `C=Cc1ncc2n1CCN(c1nc(OC[C@@H]3CCCN3C)nc3c1CCN(c1cccc4ccccc14)C3)C2` [Example 3, (S)-2-((1-Methylpyrrolidin-2-yl)methoxy)-7-(naphthalen-1-yl)-4-(3-vinyl-5,6-dihydroimidazo[1,5-a]pyrazin-7(8H)-yl)-5,6,7,8-tetrahydropyrido[3,4-d]pyrimidine], the half-inhibitory concentration (IC50) on KRAS G12C was no more than 100 nM; in assay [1], 1000 to 5000 nM.

As to `C=Cc1ncc2n1CCN(c1nc(OC[C@@H]3CCCN3C)nc3c1CCN(c1cccc4cccc(Cl)c14)C3)C2` [Example 4, (S)-7-(8-Chloronaphthalen-1-yl)-2-((1-methylpyrrolidin-2-yl)methoxy)-4-(3-vinyl-5,6-dihydroimidazo[1,5-a]pyrazin-7(8H)-yl)-5,6,7,8-tetrahydropyrido[3,4-d]pyrimidine], the half-inhibitory concentration (IC50) on KRAS G12C lay in the range of 100 to 1000 nM; in assay [1], 1000 to 5000 nM.

As for `C=Cc1ncc2n1CCN(c1nc(OCCCN3CCCCC3)nc3c1CCN(c1cccc4cccc(Cl)c14)C3)C2` [Example 5, 7-(8-Chloronaphthalen-1-yl)-2-(3-(piperidin-1-yl)propoxy)-4-(3-vinyl-5,6-dihydroimidazo[1,5-a]pyrazin-7(8H)-yl)-5,6,7,8-tetrahydropyrido[3,4-d]pyrimidine], the concentration for half-maximal inhibition (IC50) at KRAS G12C was 100 to 1000 nM; in assay [1], 1000 to 5000 nM.

Take `C=Cc1ncc2n1CCN(c1nc(OCC3CCCN(C)C3)nc3c1CCN(c1cccc4cccc(Cl)c14)C3)C2` (centres unmarked) [Example 6, 7-(8-Chloronaphthalen-1-yl)-2-((1-methylpiperidin-3-yl)methoxy)-4-(3-vinyl-5,6-dihydroimidazo[1,5-a]pyrazin-7(8H)-yl)-5,6,7,8-tetrahydropyrido[3,4-d]pyrimidine]: the IC50 at KRAS G12C lay in the range of 100 to 1000 nM; in assay [1], 1000 to 5000 nM.

In the case of `C=Cc1ncc2n1CCN(c1nc(OCC3CCCCN3C)nc3c1CCN(c1cccc4cccc(Cl)c14)C3)C2` (centres unmarked) [Example 7, 7-(8-Chloronaphthalen-1-yl)-2-((1-methylpiperidin-2-yl)methoxy)-4-(3-vinyl-5,6-dihydroimidazo[1,5-a]pyrazin-7(8H)-yl)-5,6,7,8-tetrahydropyrido[3,4-d]pyrimidine], the IC50 on KRAS G12C fell in the range of 100 to 1000 nM.

For the compound `C=Cc1ncc2n1CCN(c1nc(OCCC3CCCN3C)nc3c1CCN(c1cccc4cccc(Cl)c14)C3)C2` (centres unmarked) [Example 8, 7-(8-Chloronaphthalen-1-yl)-2-(2-(1-methylpyrrolidin-2-yl)ethoxy)-4-(3-vinyl-5,6-dihydroimidazo[1,5-a]pyrazin-7(8H)-yl)-5,6,7,8-tetrahydropyrido[3,4-d]pyrimidine], on KRAS G12C, the half-inhibitory concentration (IC50) lay in the range of 100 to 1000 nM.

With `C=Cc1ncc2n1CCN(c1nc(OC[C@@H]3CCCN3C)nc3c1CCN(c1cc(O)cc4ccccc14)C3)C2` [Example 9, (S)-4-(2-((1-Methylpyrrolidin-2-yl)methoxy)-4-(3-vinyl-5,6-dihydroimidazo[1,5-a]pyrazin-7(8H)-yl)-5,8-dihydropyrido[3,4-d]pyrimidin-7(6H)-yl)naphthalen-2-ol], the values for the IC50 (at KRAS G12C; in assay [1]) were 100 to 1000 nM and 1000 to 5000 nM, respectively.

Regarding `C=Cc1ncc2n1CCN(c1nc(OC[C@@H]3CCCN3Cc3ccccc3)nc3c1CCN(c1cccc4cccc(Cl)c14)C3)C2` [Example 10, (S)-2-((1-Benzylpyrrolidin-2-yl)methoxy)-7-(8-chloronaphthalen-1-yl)-4-(3-vinyl-5,6-dihydroimidazo[1,5-a]pyrazin-7(8H)-yl)-5,6,7,8-tetrahydropyrido[3,4-d]pyrimidine], at KRAS G12C, the concentration for half-maximal inhibition (IC50) was 100 to 1000 nM.

With `C=Cc1ncc2n1CCN(c1nc(OC[C@H]3CCCN3C)nc3c1CCN(c1cc(O)cc4ccccc14)C3)C2` [Example 11, (R)-4-(2-((1-Methylpyrrolidin-2-yl)methoxy)-4-(3-vinyl-5,6-dihydroimidazo[1,5-a]pyrazin-7(8H)-yl)-5,8-dihydropyrido[3,4-d]pyrimidin-7(6H)-yl)naphthalen-2-ol], the values for the 50% inhibitory concentration (IC50) (at KRAS G12C; in assay [1]) were 100 to 1000 nM and 1000 to 5000 nM, respectively.

With `C=Cc1ncc2n1CCN(c1nc(OCC3(C#N)CCCC3)nc3c1CCN(c1cccc4cccc(Cl)c14)C3)C2` [Example 12, 1-(((7-(8-Chloronaphthalen-1-yl)-4-(3-vinyl-5,6-dihydroimidazo[1,5-a]pyrazin-7(8H)-yl)-5,6,7,8-tetrahydropyrido[3,4-d]pyrimidin-2-yl)oxy)methyl)cyclopentane-1-carbonitrile], the IC50 on KRAS G12C lay in the range of 1000 to 5000 nM.

As to `C=Cc1ncc2n1CCN(c1nc(OCCCN3CCOCC3)nc3c1CCN(c1cc(O)cc4ccccc14)C3)C2` [Example 13, 4-(2-(3-Morpholinopropoxy)-4-(3-vinyl-5,6-dihydroimidazo[1,5-a]pyrazin-7(8H)-yl)-5,8-dihydropyrido[3,4-d]pyrimidin-7(6H)-yl)naphthalen-2-ol], on KRAS G12C, the half-inhibitory concentration (IC50) was in the range of 1000 to 5000 nM.

`C=Cc1cnc2n1CCN(c1nc(OC[C@@H]3CCCN3C)nc3c1CCN(c1cccc4cccc(Cl)c14)C3)C2` [Example 14, (S)-7-(8-Chloronaphthalen-1-yl)-2-((1-methylpyrrolidin-2-yl)methoxy)-4-(3-vinyl-5,6-dihydroimidazo[1,2-a]pyrazin-7(8H)-yl)-5,6,7,8-tetrahydropyrido[3,4-d]pyrimidine]: the half-inhibitory concentration (IC50) on KRAS G12C lay in the range of 1000 to 5000 nM.

With `C=Cc1cnc2n1CCN(c1nc(OCCCN3CCOCC3)nc3c1CCN(c1cccc4cccc(Cl)c14)C3)C2` [Example 15, 4-(3-((7-(8-Chloronaphthalen-1-yl)-4-(3-vinyl-5,6-dihydroimidazo[1,2-a]pyrazin-7(8H)-yl)-5,6,7,8-tetrahydropyrido[3,4-d]pyrimidin-2-yl)oxy)propyl)morpholine], the IC50 on KRAS G12C fell in the range of 1000 to 5000 nM.

For the origin of these results see patent publication US11739102B2, “Fused pyrimidine compounds as KRAS inhibitors” (Incyte Corporation, priority 2020, dated 2023).
